Measured values published in US7955838B2, “Methods and device for adhesive control of internal cell organisation” (Institut Curie, priority 2003, dated 2011).

System: HeLa cells stably expressing centrin1-GFP
Assay: Nocodazole treatment of premitotic cells on [L] fibronectin micropatterns (centrosome separation, cell rounding, spindle orientation)
Type: cell-based, human
Details: for Distribution of spindle orientations after nocodazole wash-out: after wash-out of 10^−7 M nocodazole, [L] patterns, versus non-treated cells
Experimental: HeLa, human epithelial cells, stably expressing centrin1-GFP (Piel et al. J. Cell Biol. 149, 317-329 (2000), were cultured in Dulbecco Modified Eagle Medium with 10% foetal calf serum, 1% penicillin and streptomycin, and 1% glutamine at 37° C. Cells were synchronised using a double thymidine block and then removed from their flask using […], 10 minutes at 37° C. After removing the […] by centrifugation, cells were resuspended in DMEM with 1% FCS and deposited on the printed coverslip at a density of 10^4 cells/cm^2. The inventors used an inverted Leica DMIRBE microscope with an heated and motorized stage combined with a home-made plastic cell chamber to hold the printed glass coverslip, which was covered by a porous membrane allowing CO2 buffering at pH-7.4. Metamorph software (Universal Imaging) was used for image acquisition. Numerous cell divisions were followed using a time-lapse phase contrast on a multi-fields acquisition at a frame rate of one picture every 3 minutes with a 10× magnitude objective. Centrosome movements were followed during mitosis with a 63× apochromat objective lens (Leica) using fluorescent Z acquisitions through a green filter and a phase contrast picture of the cell bottom every 5 minutes. A software has been developed. This software was able to automatically recognise a single fluorescent micropattern within a field and detect the presence of a single cell attached to it. Individual cell divisions were extracted from the 10× phase contrast time-lapse recordings and every picture automatically segmented using a wavelet decomposition and fitted with an ellipse (FIG. 1b). The moment of cell elongation in anaphase was precisely detected, as the shape factor, defined as the ellipse length ratio, suddenly dropped from more than 0.9 to less than 0.6 (FIG. 1c). The angle between the major axis of the ellipse, corresponding to spindle orientation, and the vertical reference of the pattern oriented as shown on FIG. 2 was then recorded. The position of the centre of the round mitotic cell with respect to the pattern was also automatically recorded 6 minutes before anaphase.[…]. The mechanisms by which the premitotic actin network is remodeled during mitotic cortical retraction and the correlative formation of actin-rich retraction fibers are not fully understood. In order to address whether spindle assembly had to take place during the remodelling of the actin network to be correctly oriented, centrosomes were prevented from separating during cell retraction on [L] patterns by treating premitotic cells with 10^-7 M nocodazole during one hour. […] After nocodazole washout, centrosomes separated and formed a bipolar spindle (FIG. 4C). […] RFs are good candidates for guiding spindle orientation as they are maintained despite nocodazole treatment.

[1] = 10^−7 M nocodazole during one hour, premitotic cells on [L] patterns

## COC(=O)Nc1nc2ccc(C(=O)c3cccs3)cc2[nH]1 [nocodazole]
[1]
  Effect on cell rounding: did not block cell rounding
  Effect on mitosis / centrosome separation: blocked cells in metaphase with unseparated centrosomes
  Distribution of spindle orientations after nocodazole wash-out: still preferentially orientated parallel to the hypotenuse of the triangle
Listed as NZ
  Distribution of spindle orientations after nocodazole wash-out: spindles are still able to mainly orient in round cell bodies as in control cells
nocodazole-treated mitotic cells on [L] patterns
  Retracting fibers (RFs) under nocodazole treatment: maintained
